This experiment addresses BTK (Homo sapiens (Human), UniProt Q06187). As to the kind of experiment: BTK LC3K biochemical assay (LabChip 3000 mobility shift). How it is done: Formula I compounds were tested by biochemical Btk, Kinase assays (Example 901).
Alternatively, an in vitro BTK biochemical assay that quantifies BTK-catalyzed tyrosine phosphorylation of a synthetic peptide, as detected using a LabChip 3000® microfluidic mobility shift instrument (PerkinElmer; Waltham, Mass.) can be conducted. The substrate peptide, ProfilerPro® FL-Peptide 22 (Product No. 760366; PerkinElmer), has an amino-terminal fluorescent 5-carboxyfluorescein group (5-FAM) and a tyrosine residue that can be phosphorylated by BTK: 5-FAM-[…]-NH2. Purified recombinant human full-length catalytically active BTK protein was obtained from Carna Biosciences (Product No. 08-080; Kobe, Japan).
BTK assay mixtures contained 50 mM 4-(2-hydroxyethyl)-1-piperazineethanesulfonic acid buffer (pH 7.5), 10 mM magnesium chloride, 0.01% Triton X-100, 1 mM dithiothreitol, 1 μM FL-Peptide 22, 45 μM ATP, 1 nM BTK, and a titration of up to 10,000 nM test article in a final concentration of 0.5% (volume to volume [v/v]) DMSO. In the titration experiments, each of the test article concentrations (10 or 12 concentrations) was tested in duplicate. Blank reactions contained ATP, peptide, and DMSO, but no BTK or test article, whereas uninhibited control reactions contained ATP, peptide, BTK, and DMSO, but no test article.
Reactions were incubated for 30 minutes at room temperature (22° C.-23° C.) in a final volume of 20 μL per well in 384-well plates. Ten microliters of BTK plus peptide mixture were added to 10 μL of a mixture of ATP and test article (or vehicle) to initiate the reactions. Reactions were stopped by adding 10 μL of 0.25 M ethylenediaminetetraacetic acid (EDTA) at pH 8.0 to each well. In each reaction, the residual FL-Peptide 22 substrate (S) and the phospho-peptide product (P) generated were separated using the LabChip 3000 instrument. Electrophoretic separation of molecules of product from molecules of substrate was achieved using downstream and upstream voltages of −500 and −2250 V, respectively, at an operating pressure of −1 psi. The 5-FAM group present on both the substrate and product peptides was excited at 488 nm; the fluorescence at 530 nm was detected and the peak heights were reported.
Data Analysis: The extent (or percent) of conversion of substrate to product was calculated from the corresponding peak heights in the electropherogram using HTS Well Analyzer software, version 5.2 (PerkinElmer) and the following equation: conversion=[(P)÷(S+P)]×100 where S and P represent the peak heights of the substrate and product, respectively. After any baseline signal from blank wells containing no BTK was subtracted from the signal of all test wells, the % conversion data were converted to fractional activity as shown in Equation 2, where vi and vo are the % conversion in the presence and absence, respectively, of test article. The % conversion observed in the uninhibited control reaction wells containing BTK and DMSO vehicle, but no test article, was defined to have fractional activity=1 (in this case with no test article present, vi=vo), whereas blank wells with no BTK were defined as having fractional activity=0. Fractional activity was plotted against test article concentration and the data were fit using Genedata Screener software (Genedata; Basel, Switzerland) to the tight-binding apparent inhibition constant (Ki^app) Morrison equation [Williams, J. W. and Morrison, J. F. (1979) The kinetics of reversible tight-binding inhibition. Methods Enzymol 63:437-67]. The following equation was used to calculate fractional activity and Ki^app:
[formula] where [E]T and [I]T are the total concentrations of active enzyme (fixed value of 0.001 μM=1 nM) and test article (e.g., inhibitor; the varied parameter), respectively.
BTK, sequence (Q06187 whole entry): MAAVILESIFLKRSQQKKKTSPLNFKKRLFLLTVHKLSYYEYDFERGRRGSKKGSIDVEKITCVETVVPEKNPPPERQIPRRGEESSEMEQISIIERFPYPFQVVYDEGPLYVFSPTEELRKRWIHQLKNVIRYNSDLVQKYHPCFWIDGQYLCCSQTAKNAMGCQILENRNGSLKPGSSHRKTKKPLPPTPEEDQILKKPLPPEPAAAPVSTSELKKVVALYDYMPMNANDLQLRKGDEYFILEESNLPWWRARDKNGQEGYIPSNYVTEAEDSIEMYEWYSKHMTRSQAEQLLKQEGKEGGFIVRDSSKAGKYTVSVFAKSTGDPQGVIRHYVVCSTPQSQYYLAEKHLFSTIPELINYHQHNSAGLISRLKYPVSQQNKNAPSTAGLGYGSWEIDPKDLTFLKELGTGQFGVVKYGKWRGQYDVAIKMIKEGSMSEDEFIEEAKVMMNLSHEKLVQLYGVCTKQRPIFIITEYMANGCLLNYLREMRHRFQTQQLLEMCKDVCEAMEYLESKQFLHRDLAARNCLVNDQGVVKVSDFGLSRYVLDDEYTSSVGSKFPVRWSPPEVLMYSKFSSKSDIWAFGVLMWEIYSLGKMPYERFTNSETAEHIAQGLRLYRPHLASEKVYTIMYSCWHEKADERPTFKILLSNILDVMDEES
For the compound `C=CC(=O)NCCOc1cccc(Nc2cc(-c3ccnc(N4CCn5c(cc6c5CC(C)(C)C6)C4=O)c3CO)cn(C)c2=O)n1` [Compound 101, N-{2-[(6-{[5-(2-{4,4-dimethyl-9-oxo-1,10-diazatricyclo[6.4.0.0^2,6]dodeca-2(6),7-dien-10-yl}-3-(hydroxymethyl)pyridin-4-yl)-1-methyl-2-oxo-1,2-dihydropyridin-3-yl]amino}pyridin-2-yl)oxy]ethyl}prop-2-enamide], the Ki worked out at 0.792 nM.

With `Cn1cc(-c2ccnc(N3CCn4c(cc5c4CC(C)(C)C5)C3=O)c2CO)cc(Nc2ccnc(N3CCC(C(=O)NCC#N)C3)n2)c1=O` (stereo not shown) [Compound 102, N-(cyanomethyl)-1-(4-{[5-(2-{4,4-dimethyl-9-oxo-1,10-diazatricyclo[6.4.0.0^2,6]dodeca-2(6),7-dien-10-yl}-3-(hydroxymethyl)pyridin-4-yl)-1-methyl-2-oxo-1,2-dihydropyridin-3-yl]amino}pyrimidin-2-yl)pyrrolidine-3-carboxamide], the Ki was found to be 0.864 nM.

`C=CC(=O)NCCOc1cccc(Nc2cc(-c3ccnc(-n4ncc5cc(C(C)(C)C)cc(F)c5c4=O)c3CO)cn(C)c2=O)n1` [Compound 104, N-[2-[[6-[[5-[2-(6-tert-butyl-8-fluoro-1-oxo-phthalazin-2-yl)-3-(hydroxymethyl)-4-pyridyl]-1-methyl-2-oxo-3-pyridyl]amino]-2-pyridyl]oxy]ethyl]prop-2-enamide]: the Ki amounted to 0.915 nM.

With `C=CC(=O)NCCNc1cccc(Nc2cc(-c3cc(F)cc(-n4ncc5c6c(sc5c4=O)CCCC6)c3CO)cn(C)c2=O)n1` [Compound 105, N-[2-[[6-[[5-[5-fluoro-2-(hydroxymethyl)-3-(4-oxo-6,7,8,9-tetrahydrobenzothiopheno[2,3-d]pyridazin-3-yl)phenyl]-1-methyl-2-oxo-3-pyridyl]amino]-2-pyridyl]amino]ethyl]prop-2-enamide], the Ki is 0.248 nM.

Turning to `CC#CC(=O)NCCOc1cccc(Nc2cc(-c3cc(F)cc(-n4ncc5c6c(sc5c4=O)CCCC6)c3CO)cn(C)c2=O)n1` [Compound 106, N-[2-[[6-[[5-[5-fluoro-2-(hydroxymethyl)-3-(4-oxo-6,7,8,9-tetrahydrobenzothiopheno[2,3-d]pyridazin-3-yl)phenyl]-1-methyl-2-oxo-3-pyridyl]amino]-2-pyridyl]oxy]ethyl]but-2-ynamide], the Ki came to 0.306 nM.

Consider `C=CC(=O)N[C@@H](C)COc1cccc(Nc2cc(-c3ccnc(N4CCn5c(cc6c5CC(C)(C)C6)C4=O)c3CO)cn(C)c2=O)n1` [Compound 107, N-[(1S)-2-[[6-[[5-[2-(7,7-dimethyl-4-oxo-1,2,6,8-tetrahydrocyclopenta[3,4]pyrrolo[3,5-b]pyrazin-3-yl)-3-(hydroxymethyl)-4-pyridyl]-1-methyl-2-oxo-3-pyridyl]amino]-2-pyridyl]oxy]-1-methyl-ethyl]prop-2-enamide], for which the Ki worked out at 0.612 nM.

For `C=CC(=O)N[C@@H](C)COc1cccc(Nc2cc(-c3cc(F)cc(-n4ncc5c6c(sc5c4=O)CCCC6)c3CO)cn(C)c2=O)n1` [Compound 108, N-[(1S)-2-[[6-[[5-[5-fluoro-2-(hydroxymethyl)-3-(4-oxo-6,7,8,9-tetrahydrobenzothiopheno[2,3-d]pyridazin-3-yl)phenyl]-1-methyl-2-oxo-3-pyridyl]amino]-2-pyridyl]oxy]-1-methyl-ethyl]prop-2-enamide], the Ki turned out to be 2.57 nM.

For `C=CC(=O)NCCN(C)c1cccc(Nc2cc(-c3cc(F)cc(-n4ncc5c6c(sc5c4=O)CCCC6)c3CO)cn(C)c2=O)n1` [Compound 111, N-[2-[[6-[[5-[5-fluoro-2-(hydroxymethyl)-3-(4-oxo-6,7,8,9-tetrahydrobenzothiopheno[2,3-d]pyridazin-3-yl)phenyl]-1-methyl-2-oxo-3-pyridyl]amino]-2-pyridyl]-methyl-amino]ethyl]prop-2-enamide], the Ki came to 0.494 nM.

In the case of `C=CC(=O)N(C)CCOc1cccc(Nc2cc(-c3ccnc(N4CCn5c(cc6c5CC(C)(C)C6)C4=O)c3CO)cn(C)c2=O)n1` [Compound 112, N-[2-[[6-[[5-[2-(7,7-dimethyl-4-oxo-1,2,6,8-tetrahydrocyclopenta[3,4]pyrrolo[3,5-b]pyrazin-3-yl)-3-(hydroxymethyl)-4-pyridyl]-1-methyl-2-oxo-3-pyridyl]amino]-2-pyridyl]oxy]ethyl]-N-methyl-prop-2-enamide], the Ki is 1.75 nM.

Consider `C=CC(=O)N(C)CCOc1cccc(Nc2cc(-c3cc(F)cc(-n4ncc5c6c(sc5c4=O)CCCC6)c3CO)cn(C)c2=O)n1` [Compound 113, N-[2-[[6-[[5-[5-fluoro-2-(hydroxymethyl)-3-(4-oxo-6,7,8,9-tetrahydrobenzothiopheno[2,3-d]pyridazin-3-yl)phenyl]-1-methyl-2-oxo-3-pyridyl]amino]-2-pyridyl]oxy]ethyl]-N-methyl-prop-2-enamide], for which the inhibitory constant (Ki) came out at 0.146 nM.

As to `C=CC(=O)N[C@H]1CCCN(c2cccc(Nc3cc(-c4cc(F)cc(-n5ncc6c7c(sc6c5=O)CCCC7)c4CO)cn(C)c3=O)n2)C1` [Compound 115, N-[(3S)-1-[6-[[5-[5-fluoro-2-(hydroxymethyl)-3-(4-oxo-6,7,8,9-tetrahydrobenzothiopheno[2,3-d]pyridazin-3-yl)phenyl]-1-methyl-2-oxo-3-pyridyl]amino]-2-pyridyl]-3-piperidyl]prop-2-enamide], the Ki was found to be 2.16 nM.

For `C=C(C#N)C(=O)NCCOc1cccc(Nc2cc(-c3cc(F)cc(-n4ncc5c6c(sc5c4=O)CCCC6)c3CO)cn(C)c2=O)n1` [Compound 117, 2-cyano-N-[2-[[6-[[5-[5-fluoro-2-(hydroxymethyl)-3-(4-oxo-6,7,8,9-tetrahydrobenzothiopheno[2,3-d]pyridazin-3-yl)phenyl]-1-methyl-2-oxo-3-pyridyl]amino]-2-pyridyl]oxy]ethyl]prop-2-enamide], the Ki turned out to be 0.576 nM.

In the case of `CCC(=O)NCCOc1cccc(Nc2cc(-c3ccnc(N4CCn5c(cc6c5CC(C)(C)C6)C4=O)c3CO)cn(C)c2=O)n1` [Compound 119, N-{2-[(6-{[5-(2-{4,4-dimethyl-9-oxo-1,10-diazatricyclo[6.4.0.0^2,6]dodeca-2(6),7-dien-10-yl}-3-(hydroxymethyl)pyridin-4-yl)-1-methyl-2-oxo-1,2-dihydropyridin-3-yl]amino}pyridin-2-yl)oxy]ethyl}propanamide], the Ki is 0.963 nM.

These data come from US9260415B2, “Heteroaryl pyridone and aza-pyridone compounds with electrophilic functionality” (Genentech, Inc., priority 2013, dated 2016).
